Test results from BigSolDB 2.1.

## Nc1cccc2c1CN(C1CCC(=O)NC1=O)C2=O (stereo not given)
In acetonitrile, 293.15 K
  solubility (mole fraction): 0.000539
In acetonitrile, 298.15 K
  solubility (mole fraction): 0.000549
In acetonitrile, 303.15 K
  solubility (mole fraction): 0.000561
In acetonitrile, 308.15 K
  solubility (mole fraction): 0.000573
In acetonitrile, 313.15 K
  solubility (mole fraction): 0.000588
In acetonitrile, 318.15 K
  solubility (mole fraction): 0.000603
In acetonitrile, 323.15 K
  solubility (mole fraction): 0.000618
In acetonitrile, 328.15 K
  solubility (mole fraction): 0.000634
In acetonitrile, 333.15 K
  solubility (mole fraction): 0.000652
In ethanol, 293.15 K
  solubility (mole fraction): 0.000164
In ethanol, 298.15 K
  solubility (mole fraction): 0.000183
In ethanol, 303.15 K
  solubility (mole fraction): 0.000209
In ethanol, 308.15 K
  solubility (mole fraction): 0.000238
In ethanol, 313.15 K
  solubility (mole fraction): 0.00027
In ethanol, 318.15 K
  solubility (mole fraction): 0.000309
In ethanol, 323.15 K
  solubility (mole fraction): 0.000357
In ethanol, 328.15 K
  solubility (mole fraction): 0.000404
In ethanol, 333.15 K
  solubility (mole fraction): 0.00046
In ethyl acetate, 293.15 K
  solubility (mole fraction): 0.000127
In ethyl acetate, 298.15 K
  solubility (mole fraction): 0.000144
In ethyl acetate, 303.15 K
  solubility (mole fraction): 0.000164
In ethyl acetate, 308.15 K
  solubility (mole fraction): 0.000184
In ethyl acetate, 313.15 K
  solubility (mole fraction): 0.00021
In ethyl acetate, 318.15 K
  solubility (mole fraction): 0.000239
In ethyl acetate, 323.15 K
  solubility (mole fraction): 0.000277
In ethyl acetate, 328.15 K
  solubility (mole fraction): 0.000319
In ethyl acetate, 333.15 K
  solubility (mole fraction): 0.000367
In isopropanol, 293.15 K
  solubility (mole fraction): 6.37e-05
In isopropanol, 298.15 K
  solubility (mole fraction): 7.79e-05
In isopropanol, 303.15 K
  solubility (mole fraction): 9.5e-05
In isopropanol, 308.15 K
  solubility (mole fraction): 0.000116
In isopropanol, 313.15 K
  solubility (mole fraction): 0.000141
In isopropanol, 318.15 K
  solubility (mole fraction): 0.000168
In isopropanol, 323.15 K
  solubility (mole fraction): 0.000195
In isopropanol, 328.15 K
  solubility (mole fraction): 0.000231
In isopropanol, 333.15 K
  solubility (mole fraction): 0.000271
In methanol, 293.15 K
  solubility (mole fraction): 0.000252
In methanol, 298.15 K
  solubility (mole fraction): 0.000269
In methanol, 303.15 K
  solubility (mole fraction): 0.000288
In methanol, 308.15 K
  solubility (mole fraction): 0.000309
In methanol, 313.15 K
  solubility (mole fraction): 0.000332
In methanol, 318.15 K
  solubility (mole fraction): 0.000359
In methanol, 323.15 K
  solubility (mole fraction): 0.000394
In methanol, 328.15 K
  solubility (mole fraction): 0.000434
In methanol, 333.15 K
  solubility (mole fraction): 0.00048
